According to paper PMC2980852 (Biochemistry, 2010):

Molecular target: LuxG (Photobacterium leiognathi, UniProt P29237)
Assay: stopped-flow NADH fluorescence, amplitude titration
Format: binding

Sequence of LuxG (P29237 whole entry): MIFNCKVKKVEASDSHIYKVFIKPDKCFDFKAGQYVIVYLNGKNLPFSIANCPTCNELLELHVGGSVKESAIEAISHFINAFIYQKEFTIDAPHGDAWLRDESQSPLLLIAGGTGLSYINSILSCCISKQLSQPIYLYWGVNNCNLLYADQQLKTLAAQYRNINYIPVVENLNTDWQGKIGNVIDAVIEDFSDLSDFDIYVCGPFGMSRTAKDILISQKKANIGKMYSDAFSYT

- Kd: 25 ± 4 µM
SMILES: NC(=O)C1=CN([C@@H]2O[C@H](COP(=O)(O)OP(=O)(O)OC[C@H]3O[C@@H](n4cnc5c(N)ncnc54)[C@H](O)[C@@H]3O)[C@@H](O)[C@H]2O)C=CC1 [NADH]
